PubChem BioAssay (NCI)
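Protocol summary: plate cells (96-well), add compound at 5 concentrations, incubate 48 h, interpolate endpoints linearly. Here, GI50 denotes the concentration required for 50% inhibition of growth. TGI denotes the concentration required for complete inhibition of growth.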 Where a SMILES comes first, the peptide text is derived from it. [ ]: non-standard residue; d: D form. The star is where a group is joined. ξ: configuration not given here. X6 = FC(F)(F)c1cc(NC(=S)*)cc(C(F)(F)F)c1; ξF = NC(Cc1ccccc1)C(=O)O

system: UACC-62 melanoma; experiment: NCI anticancer screen, dose series, 48 h

| SMILES | GI50 | TGI |
| --- | --- | --- |
| COC(=O)[C@@H](NC(=O)CNC(=O)[C@H]1CCCN1C(=O)C(Cc1ccccc1)NC(=S)Nc1cc(C(F)(F)F)cc(C(F)(F)F)c1)C(C)C (some centres undefined) (X6-[ξF][dP]GV-OMe) | 1.79 µM | 3.98 µM |

system: KM12 colon; experiment: NCI anticancer screen, dose series, 48 h

| SMILES | GI50 | TGI |
| --- | --- | --- |
| OCc1ccc(N2CCC2c2ccc(F)cc2)cc1Cl (centres undefined) | 24.3 µM | > 66.4 µM |
| COC(=O)c1cc2c(n1S(=O)(=O)c1ccc(C)cc1)C(=O)C(=O)c1[nH]cc(C(=O)OCc3ccccc3)c1-2 |  | 0.563 µM |
| O=C(Nc1ccccc1OC(F)(F)F)Nc1n[nH]c2ccccc12 | 23.4 µM | > 100 µM |
| COC(=O)[C@@H](NC(=O)CNC(=O)[C@H]1CCCN1C(=O)C(Cc1ccccc1)NC(=S)Nc1cc(C(F)(F)F)cc(C(F)(F)F)c1)C(C)C (some centres undefined) (X6-[ξF][dP]GV-OMe) | 2.88 µM | 7.75 µM |

system: SK-MEL-5 melanoma; experiment: NCI anticancer screen, dose series, 48 h

| SMILES | GI50 | TGI |
| --- | --- | --- |
| OCc1ccc(N2CCC2c2ccc(F)cc2)cc1Cl (centres undefined) | 8.92 µM | 22.9 µM |
| COC(=O)c1cc2c(n1S(=O)(=O)c1ccc(C)cc1)C(=O)C(=O)c1[nH]cc(C(=O)OCc3ccccc3)c1-2 |  | 0.064 µM |
| O=C(Nc1ccccc1OC(F)(F)F)Nc1n[nH]c2ccccc12 | 28.7 µM | > 100 µM |
| COC(=O)[C@@H](NC(=O)CNC(=O)[C@H]1CCCN1C(=O)C(Cc1ccccc1)NC(=S)Nc1cc(C(F)(F)F)cc(C(F)(F)F)c1)C(C)C (some centres undefined) (X6-[ξF][dP]GV-OMe) | 1.45 µM | 2.79 µM |

system: OVCAR-5 ovarian; experiment: NCI anticancer screen, dose series, 48 h

| SMILES | GI50 | TGI |
| --- | --- | --- |
| OCc1ccc(N2CCC2c2ccc(F)cc2)cc1Cl (centres undefined) | 0.256 µM | 1.9 µM |
| COC(=O)c1cc2c(n1S(=O)(=O)c1ccc(C)cc1)C(=O)C(=O)c1[nH]cc(C(=O)OCc3ccccc3)c1-2 |  | 1.02 µM |
| O=C(Nc1ccccc1OC(F)(F)F)Nc1n[nH]c2ccccc12 | 34.3 µM | > 100 µM |
| COC(=O)[C@@H](NC(=O)CNC(=O)[C@H]1CCCN1C(=O)C(Cc1ccccc1)NC(=S)Nc1cc(C(F)(F)F)cc(C(F)(F)F)c1)C(C)C (some centres undefined) (X6-[ξF][dP]GV-OMe) | 1.93 µM | 3.64 µM |

system: T-47D breast; experiment: NCI anticancer screen, dose series, 48 h

| SMILES | GI50 | TGI |
| --- | --- | --- |
| OCc1ccc(N2CCC2c2ccc(F)cc2)cc1Cl (centres undefined) | 0.209 µM | 1.72 µM |
| COC(=O)c1cc2c(n1S(=O)(=O)c1ccc(C)cc1)C(=O)C(=O)c1[nH]cc(C(=O)OCc3ccccc3)c1-2 |  | 0.975 µM |
| O=C(Nc1ccccc1OC(F)(F)F)Nc1n[nH]c2ccccc12 | 37.5 µM | > 100 µM |
| COC(=O)[C@@H](NC(=O)CNC(=O)[C@H]1CCCN1C(=O)C(Cc1ccccc1)NC(=S)Nc1cc(C(F)(F)F)cc(C(F)(F)F)c1)C(C)C (some centres undefined) (X6-[ξF][dP]GV-OMe) | 3.87 µM | 28.8 µM |

system: HCT-116 colon; experiment: NCI anticancer screen, dose series, 48 h

| SMILES | GI50 | TGI |
| --- | --- | --- |
| OCc1ccc(N2CCC2c2ccc(F)cc2)cc1Cl (centres undefined) | 0.481 µM | > 38.2 µM |
| COC(=O)c1cc2c(n1S(=O)(=O)c1ccc(C)cc1)C(=O)C(=O)c1[nH]cc(C(=O)OCc3ccccc3)c1-2 |  | 0.247 µM |
| O=C(Nc1ccccc1OC(F)(F)F)Nc1n[nH]c2ccccc12 | 16.2 µM | > 100 µM |
| COC(=O)[C@@H](NC(=O)CNC(=O)[C@H]1CCCN1C(=O)C(Cc1ccccc1)NC(=S)Nc1cc(C(F)(F)F)cc(C(F)(F)F)c1)C(C)C (some centres undefined) (X6-[ξF][dP]GV-OMe) | 3.34 µM | 10.7 µM |

system: HOP-62 NSCLC; experiment: NCI anticancer screen, dose series, 48 h

| SMILES | GI50 | TGI |
| --- | --- | --- |
| OCc1ccc(N2CCC2c2ccc(F)cc2)cc1Cl (centres undefined) | 10.1 µM | > 68 µM |
| COC(=O)c1cc2c(n1S(=O)(=O)c1ccc(C)cc1)C(=O)C(=O)c1[nH]cc(C(=O)OCc3ccccc3)c1-2 |  | 0.385 µM |
| O=C(Nc1ccccc1OC(F)(F)F)Nc1n[nH]c2ccccc12 | 19.6 µM | 73.4 µM |
| COC(=O)[C@@H](NC(=O)CNC(=O)[C@H]1CCCN1C(=O)C(Cc1ccccc1)NC(=S)Nc1cc(C(F)(F)F)cc(C(F)(F)F)c1)C(C)C (some centres undefined) (X6-[ξF][dP]GV-OMe) | 1.92 µM | 3.62 µM |

system: UACC-257 melanoma; experiment: NCI anticancer screen, dose series, 48 h

| SMILES | GI50 | TGI |
| --- | --- | --- |
| OCc1ccc(N2CCC2c2ccc(F)cc2)cc1Cl (centres undefined) | 0.278 µM | 1.98 µM |
| COC(=O)c1cc2c(n1S(=O)(=O)c1ccc(C)cc1)C(=O)C(=O)c1[nH]cc(C(=O)OCc3ccccc3)c1-2 |  | 0.112 µM |
| O=C(Nc1ccccc1OC(F)(F)F)Nc1n[nH]c2ccccc12 | 47.2 µM | > 100 µM |
